Patent US20260209222A1, “CBL-B MODULATORS AND USES THEREOF” (Nimbus Clio, Inc., priority 2022, published 2026)

Key:
[1] = test system: Recombinant human c-Cbl (aa 47-435); test: c-Cbl Biochemical Assay (TR-FRET); conditions: ratio from the Cbl-b and c-Cbl TR-FRET biochemical assays
Description: c-Cbl Biochemical Assay (TR-FRET)
Recombinant human c-Cbl (aa 47-435) was expressed in E coli, purified and biotinylated in vitro. The protein was diluted to 12 nM in freshly prepared assay buffer consisting of 50 mM HEPES, pH 7.0, 100 mM NaCl, 5 mM MgCl2, 0.01% Triton-X 100, 0.01% BSA and 1 mM DTT. Recombinant human Src (aa 254-536)-GSSGSS-Zap-70 (aa 281-297) fusion protein was expressed in E coli and purified. Protein was diluted in assay buffer to 5-20 nM and ATP was added to 1 mM. Recombinant human UBE2D2(C85K) was expressed in E coli, purified and ubiquitinated and Bodipy labelled in vitro. Protein was diluted to 200 nM in assay buffer without MgCl2 (or Cisbio PPI buffer). Streptavidin-Terbium was added to 2 nM and EDTA to 10 mM, to provide a binding assay mix. Compounds were dissolved in DMSO and diluted to prepare a ten-point half log dilution series. 100 nl of each compound concentration was dispensed in duplicate in a 384 well black assay plate using acoustic dispensing. Wells for maximum signal controls received 100 nl of DMSO only and wells for minimum controls received 100 nl of a reference inhibitor compound at a final assay concentration of 100 mM to produce 100% inhibition. 5 μl of diluted c-Cbl enzyme was added to all wells of the assay plate and incubated at RT for 30 min. The enzyme assay was initiated by addition of 5 d of Src-Zap/ATP mix to all wells, and the plate incubated at RT for 60-90 min. The enzyme reaction was terminated and the binding reaction was initiated by adding 10p of binding assay mix to all wells and incubating the plate at RT for 60 min prior to assay read. Final assay conditions consisted of 6 nM c-Cbl. 2.5-10 nM Src-Zap70, 0.5 mM ATP. 1% (v/v) DMSO (enzyme reaction) and 100 nM UBE2D2(C85K)-Ub-FL-BODIPY, 5 mM EDTA, 1 nM Streptavidin-Tb (binding reaction). The HTRF assay signal was measured at 520 nm on an Envision plate reader, with reference signal at 485 or 620 nm. Data was normalized using maximum and minimum assay controls: % Inhibition=100−(100*((maximum control)−unknown)/(maximum control−minimum control)). A 4-parameter dose-response equation was used to fit the normalized dose-response data and derive an IC50 for test compounds.

[2] = molecular target: T1, Recombinant human Cbl-b (aa 36-427) (Homo sapiens, UniProt Q13191); test: Cbl-b Biochemical Assay (TR-FRET); conditions: 6 nM Cbl-b, 1-2.5 nM Src-Zap70, 0.5 mM ATP; HTRF signal at 520 nm
T1 construct: Recombinant human Cbl-b (aa 36-427) was expressed in E coli; biotin (biotinylated in vitro); made in house; host or cells: E. coli
Description: Cbl-b Biochemical Assay (TR-FRET)
Recombinant human Cbl-b (aa 36-427) was expressed in E coli, purified and biotinylated in vitro. The protein was diluted to 12 nM in freshly prepared assay buffer consisting of 50 mM HEPES, pH 7.0, 100 mM NaCl, 5 mM MgCl2, 0.01% Triton-X 100, 0.01% BSA and 1 mM DTT. Recombinant human Src (aa 254-536)-GSSGSS-Zap-70 (aa 281-297) fusion protein was expressed in E coli and purified. Protein was diluted in assay buffer to 2-5 nM and supplemented with ATP to 1 mM. Fluorescein-BODIPY labeled UBED2D(C85K)-Ub was prepared by conjugating ubiquitin (Ub) labeled at its N-terminus with Fluorescein-BODIPY maleimide (ThermoFisher Catalog no B10250) to E coli expressed and purified UBED2D(C85K) [see Dou et al Nature Structural and Molecular Biology 8: 982-987, 2013]. Recombinant human UBE2D2(C85K) was expressed in E coli, purified and ubiquitinated and Bodipy labelled in vitro. Protein was diluted to 200 nM in assay buffer without MgCl2 (or Cisbio PPI buffer). Streptavidin-Terbium was added to 2 nM and EDTA to 10 mM, to provide a binding assay mix. Compounds were dissolved in DMSO and diluted to prepare a ten-point dilution series. 100 nl of each compound concentration was dispensed in duplicate in a 384 well black assay plate using acoustic dispensing. Wells for maximum signal controls received 100 nl of DMSO only and wells for minimum signal controls received 100 nl of a reference inhibitor compound at a final assay concentration of 100 mM to produce 100% inhibition. 5 μl of diluted Cbl-b enzyme was added to all wells of the assay plate and incubated at RT for 30-60 min. The enzyme assay was initiated by addition of 5 μl of Src-Zap/ATP mix to all wells, and the plate incubated at RT for 60 min. The enzyme reaction was terminated and the binding reaction was initiated by adding 10p of binding assay mix to all wells and incubating the plate at RT for 60 min prior to assay read. Final assay conditions consisted of 6 nM Cbl-b, 1-2.5 nM Src-Zap70, 0.5 mM ATP, 1% (v/v) DMSO (enzyme reaction) and 100 nM UBE2D2(C85K)-Ub-FL-BODIPY, 5 mM EDTA, 1 nM Streptavidin-Tb (binding reaction). The HTRF assay signal was measured at 520 nm on an Envision plate reader, with reference signal at 485 or 620 nm. Data was normalized using maximum and minimum assay controls: % Inhibition=100−(100*((maximum control)−unknown)/(maximum control−minimum control)). A 4-parameter dose-response equation was used to fit the normalized dose-response data and derive an IC50 for test compounds.

T1 sequence (Q13191 36-427): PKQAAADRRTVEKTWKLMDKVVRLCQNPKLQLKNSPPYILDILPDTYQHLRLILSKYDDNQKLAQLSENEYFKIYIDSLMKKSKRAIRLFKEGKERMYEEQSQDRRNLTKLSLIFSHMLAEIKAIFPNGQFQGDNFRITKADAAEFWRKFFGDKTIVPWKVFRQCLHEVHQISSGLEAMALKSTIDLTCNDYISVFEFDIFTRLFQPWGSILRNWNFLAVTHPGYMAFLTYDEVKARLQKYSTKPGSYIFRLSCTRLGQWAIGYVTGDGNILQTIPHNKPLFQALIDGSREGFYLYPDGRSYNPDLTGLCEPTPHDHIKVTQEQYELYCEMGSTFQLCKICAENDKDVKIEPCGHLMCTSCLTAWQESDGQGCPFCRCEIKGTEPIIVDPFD

| SMILES | Cbl-b/c-Cbl Selectivity [1] | IC50 [2] [µM] |
| --- | --- | --- |
| Cn1cnnc1-c1ccc(C(F)(F)F)cc1-c1cc(NCCCC#N)nc(-c2nc3cc(CNCC4CC4)cc(C(F)(F)F)c3o2)c1 [I-54, 4-{[6-(5-{[(cyclopropylmethyl)amino]methyl}-7-(trifluoromethyl)-1,3-benzoxazol-2-yl)-4-[2-(4-methyl-1,2,4-triazol-3-yl)-5-(trifluoromethyl)phenyl]pyridin-2-yl]amino}butanenitrile; formic acid] | 7 | > 5 |
| Cn1cnnc1-c1ccccc1-c1cc(NCCCC#N)nc(-c2nc3cc(CNCC(C)(C)O)cc(C(F)(F)F)c3o2)c1 [I-55, 4-((6-(5-(((2-Hydroxy-2-methylpropyl)amino)methyl)-7-(trifluoromethyl)benzo[d]oxazol-2-yl)-4-(2-(4-methyl-4H-1,2,4-triazol-3-yl)phenyl)pyridin-2-yl)amino)butanenitrile] | 11 | < 0.2 |
| C[C@H]1CCCN(Cc2cc(C(F)(F)F)c3oc(-c4cccc([C@@H](c5nncn5C)[C@H]5C[C@@H](C(F)(F)F)C5)c4)nc3c2)C1 [I-56] | 5 | > 5 |
| C[C@H]1CCCN(Cc2cc(C(F)(F)F)c3oc(-c4cccc([C@H](c5nncn5C)[C@H]5C[C@H](C(F)(F)F)C5)c4)nc3c2)C1 [I-57] | 2 | > 5 |
| C[C@H]1CCCN(Cc2cc(C(F)(F)F)c3oc(-c4cccc([C@@H](c5nncn5C)[C@H]5C[C@H](C(F)(F)F)C5)c4)nc3c2)C1 [I-58] | 4 | > 5 |
| Cn1cnnc1[C@H](c1cccc(-c2nc3cc(CN4CCC5(CCC5)C4)cc(C(F)(F)F)c3o2)c1)[C@H]1C[C@@H](C(F)(F)F)C1 [I-60] | 1 | > 5 |
| Cn1cnnc1[C@H](c1cccc(-c2nc3cc(CN4CCC5(CCC5)C4)cc(C(F)(F)F)c3o2)c1)[C@H]1C[C@H](C(F)(F)F)C1 [I-62] | 2 | > 5 |
| Cn1cnnc1[C@@H](c1cccc(-c2nc3cc(CN4CCC5(CCC5)C4)cc(C(F)(F)F)c3o2)c1)[C@H]1C[C@@H](C(F)(F)F)C1 [I-63] | 13 | 0.2 to 5 |
